In US20260007679A1, “METHODS OF TREATING CANCER USING 3-(4-((4-(MORPHOLINOMETHYL)BENZYL)OXY)-1-OXOISOINDOLIN-2-YL)PIPERIDINE-2,6-DIONE” (Celgene Corporation, priority 2012, published 2026):
“And” between values parts separate entries of the source, which are not always exact repeats. Equal values may be shown once. Read-outs that look alike come from different tables or passages of the source.

Experiments:
[1] = test system: Human umbilical vascular endothelial cells; test: Growth factor-induced HUVEC tube formation assay; format: cell-based; conditions: for VEGF-induced HUVEC tube formation (tube length and tube area): VEGF 25 ng/mL
Procedure: Human Umbilical Vascular Endothelial Cell Tube Formation Assay: Compounds were tested in the growth factor-induced HUVEC tube formation assay. The tube formation plates were incubated at 37° C. for 30 minutes for matrigel to polymerize. The HUVECs were starved in 0.1% BSA basal EBM2 medium for 5 hours after washing with the same medium 3 times. The cells were trypsinized and centrifuged. Then 25 μL of 4× serially diluted compounds (10, 1, 0.1, 0.01, 0.001, 0.0001, 0.00001 μM) were added in duplicate with 50 μL of 2×10^4 cells/well to tube formation plates coated with matrigel. […] of 4×VEGF (final concentration=25 ng/mL) or bFGF (final concentration=10 ng/mL) were added to the plates. The cells were then incubated overnight (˜18 hours) at 37° C. in a humidified incubator. The tubule webs were stained with calcein AM at 4 g/L in 2% FBS/IBSS for 30 minutes and images taken by fluorescence microscopy. The tubules were quantified by the MetaMorph tube formation software program for tube area and tube length.
(§1) The percentage inhibition of cell proliferation, tube formation, migration, and invasion was calculated by subtracting the result for unstimulated DMSO control from test sample results, averaging all replicates, and normalizing to the growth factor-stimulated DMSO control (0% inhibition). The IC50 values were calculated by using GraphPad Prism 5.0.

[2] = test system: Human umbilical vascular endothelial cells; test: Growth factor-induced HUVEC invasion assay; format: cell-based; conditions: for IC50: Homo sapiens; for VEGF-, bFGF-, and HGF-induced HUVEC invasion: dose-dependent
Procedure: Human Umbilical Vascular Endothelial Cell Invasion Assay: In the HUVEC invasion assay, the concentration of human fibronectin is optimized to provide a suitable protein structure for adherent cells to attach to the membrane and allow free migration in response to an angiogenic stimulus (e.g. VEGF, bFGF, or HGF) in the lower chamber of the insert plate. HUVECs were starved in 0.1% BSA EBM2 medium for 6 hours after washing with the same medium 3 times. The cells were then trypsinized and centrifuged to remove the remaining trypsin. Then ˜0.5 to 1×10^6 cells in 125 μL/well and 125 μL of 8× serially diluted compounds (10, 1, 0.1, 0.01, 0.001 μM) were added to the upper chamber of the BD Falcon 24-well and 96-well insert plates in duplicate and incubated for ˜1 to 2 hours. (The plates contain a fluorescence blocking, microporous [3.0 μm pore size] PET membrane that has been evenly coated with human fibronectin.) Seven hundred fifty microliters of a 1.33× stock solution of VEGF (final concentration of 25 ng/mL), bFGF (final concentration of 10 ng/mL), or HGF (final concentration of 25 ng/mL) were then added to the lower chamber. The cells were incubated for 22±1 hours at 37° C. The migrated cells were stained with calcein AM at 4 μg/mL in HBSS containing 2% FBS, using 500 µL/well in 24-well plates and 200 µL/well in 96-well plates. The plates were incubated at 37° C. for 90 minutes and read in a fluorescence plate reader.
as §1

[3] = test system: megakaryocyte progenitor cells (normal human bone marrows); test: Megakaryocyte colony formation assay; format: cell-based; conditions: for IC50: Homo sapiens, 14-16 days
Procedure: Colony formation assay was conducted with normal human bone marrows treated in semi-solid collagen matrix with compound/IL-3/IL-6/Tpo for 14-16 days, and the results are summarized in Table 7.

NFκB p65 and p50 = test: NFκB activity in DLBCL cells (Active Motif transcription factor assay); format: cell-based; conditions: 1 μM and 10 μM; 2 days; ABC-DLBCL lines such as TMD8 and OCI-Ly10
Procedure: DLBCL cells were treated with test compound or an IKK1/2 dual inhibitor (used as a positive inhibitor control) for 2 days. NFκB activity was examined with Active Motif transcription factor assay using nuclear extracts from cells following treatment.

rat aorta = test: Rat aorta assay; format: cell-based
Procedure: Compounds I, I-R, and I-S were tested in various angiogenesis inhibition assays.

[4] = test system: NCI-H929 Multiple Myeloma xenograft; test: NCI-H929 Multiple Myeloma xenograft model; format: in vivo, mouse; conditions: for H929 tumor growth: mouse, in vivo; for tumor growth inhibition: day 19
Procedure: Compounds I, I-R, and I-S were tested in NCI-H929 Multiple Myeloma xenograft model, and the results are depicted in FIG. 24.

[5] = test system: U87 Glioblastoma xenograft; test: U87 Glioblastoma xenograft model; format: in vivo, mouse; conditions: for U87 tumor growth: 30 mg/kg qd
Procedure: Compounds I, I-R, and I-S were tested in U87 Glioblastoma xenograft model, and the results are depicted in FIG. 25.

NK cells = test: NK IgG-induced IFN-γ assay; format: cell-based, human; conditions: immobilized IgG and IL-2 stimulation; 7 donors
Source text: NK cells from healthy donors were isolated from buffy coat blood by negative selection using the RosetteSep NK cell enrichment cocktail (Stem Cell Technologies, Vancouver, BC) prior to Ficoll-Hypaque (Fisher Scientific Co LLC, PA) density gradient centrifugation following the manufacturers' instructions. CD56+NK cells were isolated to ˜85% purity, as determined by flow cytometry (BD Biosciences, CA).
NK IgG-induced Interferon-Gamma (IFN-γ) Assay: Ninety-six-well flat-bottom plates were coated with 100 µg/mL of human IgG (Sigma) overnight at 4° C. The next day, unbound IgG was washed away with cold 1×PBS. NK cells were then plated in the IgG-coated 96-well plates at 2×10^5 cells per well in 180 μL RPMI-1640 Media and 10 ng/mL of rhIL-2 (R & D Systems, MN) was added. Test compounds were added in a volume of 20 μL DMSO. Final concentrations of test compounds were […]. Final DMSO concentrations were […]. After 48 hours, the supernatants were harvested and analyzed by ELISA for IFN-γ production.
Data used to determine the test compounds to enhance NK cell IFN-γ production in response to immobilized IgG and rhIL-2 stimulation was analyzed for each donor using GraphPad Prism v5.0 software.

[6] = test system: Revlimid-resistant NCI-H929 R2-10; test: Proliferation and viability by 7-AAD staining; format: cell-based; conditions: Homo sapiens, NCI-H929, 120 h; R2-10; 5 days; read-out: IC50, proliferation
Pharmacokinetics in rat = format: in vivo; conditions: SD Rat, 67% S-enantiomer, 33% R-enantiomer
[7] = Endothelial cell, read-out: HGF-induced invasion IC50 Values
[8] = Endothelial cell, read-out: VEGF-induced invasion IC50 Values
[9] = Endothelial cell, read-out: bFGF-induced invasion IC50 Values
[10] = HUVEC, read-out: IC50, HUVEC invasion (growth factor not given)
[11] = HUVEC, read-out: IC50 for inhibition of VEGF induced HUVEC invasion
[12] = Bone Marrow ID 0090128, read-out: Immature Colony IC50
[13] = Bone Marrow ID 0090128, read-out: Intermediate Colony IC50
[14] = Bone Marrow ID 0090616, read-out: Immature Colony IC50
[15] = Bone Marrow ID 0090616, read-out: Intermediate Colony IC50
[16] = Bone Marrow ID 0090714, read-out: Immature Colony IC50
[17] = Bone Marrow ID 0090714, read-out: Intermediate Colony IC50
[18] = Sprague-Dawley, plasma, 10 mg/kg, 10 mpk po

| SMILES | VEGF-induced HUVEC tube formation (tube length and tube area) [1] | IC50 [2, 7] | IC50 [2, 8] | IC50 [2, 9] | IC50 [2, 10] | IC50 [2, 11] | VEGF-, bFGF-, and HGF-induced HUVEC invasion [2] | IC50 [3, 12] | IC50 [3, 13] | IC50 [3, 14] | IC50 [3, 15] | IC50 [3, 16] | IC50 [3, 17] | anti-angiogenic activity in rat aorta assay (rat aorta) | H929 tumor growth [4] | U87 tumor growth [5] | tumor growth inhibition ([5]; 30 mg/kg, day 48) | NK cell IFN-γ production (NK cells) | also measured |
| --- | --- | --- | --- | --- | --- | --- | --- | --- | --- | --- | --- | --- | --- | --- | --- | --- | --- | --- | --- |
| O=C1CCC(N2Cc3c(OCc4ccc(CN5CCOCC5)cc4)cccc3C2=O)C(=O)N1 (racemic) [Compound I, 3-(4-((4-(morpholinomethyl)benzyl)oxy)-1-oxoisoindolin-2-yl)piperidine-2,6-dione] | trend toward inhibiting | 590 nM | 0.14 nM | 0.42 nM | 0.4 nM | < 0.3 nM | significantly inhibited | 100 to 1000 nM | > 10000 nM | 60 nM | > 10000 nM | 50 nM | > 10000 nM | modest anti-angiogenic activity | significantly inhibited H929 tumor growth in a dose-dependent manner | significantly inhibited U87 tumor growth | > 80% | – | NFκB p65 and p50 activity (NFκB p65 and p50): significantly inhibits |
| O=C1CC[C@@H](N2Cc3c(OCc4ccc(CN5CCOCC5)cc4)cccc3C2=O)C(=O)N1 [Compound I-R, (R)-3-(4-((4-(morpholinomethyl)benzyl)oxy)-1-oxoisoindolin-2-yl)piperidine-2,6-dione] | trend toward inhibiting | 450 nM | < 0.1 nM | 13 nM | 13 nM | < 0.3 nM | significantly inhibited | 10000 nM | > 10000 nM | 400 nM | > 10000 nM | 400 nM | > 10000 nM | modest anti-angiogenic activity | – | – | – | slightly more active than compound I | inhibition of tube area and length ([1]; VEGF-induced, 10 μM, p<0.05 vs stimulated DMSO control): significant inhibition |
| O=C1CC[C@H](N2Cc3c(OCc4ccc(CN5CCOCC5)cc4)cccc3C2=O)C(=O)N1 [Compound I-S, (S)-3-(4-((4-(morpholinomethyl)benzyl)oxy)-1-oxoisoindolin-2-yl)piperidine-2,6-dione] | trend toward inhibiting | 19 nM | < 0.1 nM | < 0.1 nM | < 0.1 nM | < 0.3 nM | significantly inhibited | 80 nM | 9200 nM | 40 nM | 650 nM | 50 nM | 860 nM | modest anti-angiogenic activity | significantly inhibited H929 tumor growth in a dose-dependent manner | significantly inhibited U87 tumor growth | about 60% | slightly more active than compound I | IC50 [6]: 1200 nM; effect on megakaryocyte progenitor cells [3]: inhibited megakaryocyte progenitor cells; tumor growth inhibition ([4]; 0.3 mg/kg): 34%; tumor growth inhibition ([4]; 3 mg/kg): 67%; tumor growth inhibition ([4]; 30 mg/kg): 87%; tumor growth inhibition ([5]; 15 mg/kg, day 43, another study): about 47%; F (Pharmacokinetics in rat; 10 mpk po): 52%; AUC (Pharmacokinetics in rat; Sprague-Dawley, plasma, 2 mg/kg, 2 mpk iv): 890 ng·h/mL and 2 µM·h; clearance (Pharmacokinetics in rat; Sprague-Dawley, plasma, 2 mg/kg, 2 mpk iv, read-out: CLp): 37 mL/min/kg; Vd (Pharmacokinetics in rat; Sprague-Dawley, plasma, 2 mg/kg, 2 mpk iv, read-out: Vss): 2.9 L/kg; AUC (Pharmacokinetics in rat; [18]): 2400 ng·h/mL and 5.2 µM·h; Cmax (Pharmacokinetics in rat; [18]): 1500 ng/mL and 3.3 µM |
